Data published in patent US20250171437A1 (Agios Pharmaceuticals,Inc., priority 2022, published 2025).

Molecular target: T1, human PAH with the R408W mutation (A375 R408W cells) (Homo sapiens, UniProt P00439, R408W)
T1 construct: expressed in transfected cells
T1 sequence (P00439 1-452 R408W): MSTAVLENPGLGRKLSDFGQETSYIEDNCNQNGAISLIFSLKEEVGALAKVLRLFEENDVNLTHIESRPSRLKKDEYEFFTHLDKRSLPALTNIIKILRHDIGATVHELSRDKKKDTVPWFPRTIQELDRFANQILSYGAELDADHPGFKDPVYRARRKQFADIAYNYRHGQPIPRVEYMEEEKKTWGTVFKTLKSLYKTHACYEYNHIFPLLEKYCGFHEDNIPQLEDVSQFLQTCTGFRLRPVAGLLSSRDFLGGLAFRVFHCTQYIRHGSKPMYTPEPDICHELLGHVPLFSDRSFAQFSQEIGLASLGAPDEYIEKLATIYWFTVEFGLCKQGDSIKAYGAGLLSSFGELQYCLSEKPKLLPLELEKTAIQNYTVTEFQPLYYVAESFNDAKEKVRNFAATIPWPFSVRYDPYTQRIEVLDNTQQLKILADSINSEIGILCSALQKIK
Experiment: Cell Based Phenylalanine Flux Assay
Details: A375 R408W cells; 24 hrs with compound, then 20 μM sepiapterin and 800 μM 13C9,15N-Phenylalanine for 4 hours; 13C-Tyrosine by LC-MS; average where tested multiple times
Summary of the method: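 A375 cells stably expressing lentiviral human PAH R408W were treated with compounds (10-point 2-fold dilutions, 0.5% DMSO, duplicate) for 24 h at 37 °C. Then 20 μM sepiapterin and 800 μM 13C9,15N-Phe were added for 4 h; media 13C-Tyr was measured by LC-MS to give AC50.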

Row | AC50 | Compound
1 | 1000 to 5000 nM | Cc1ccc2c(C(=O)N3CCc4[nH]cnc4[C@@H]3c3nc4cccc(F)c4o3)cnn2c1 [Example 324, (R)-(4-(7-fluorobenzo[d]oxazol-2-yl)-6,7-dihydro-1H-imidazo[4,5-c]pyridin-5(4H)-yl)(6-methylpyrazolo[1,5-a]pyridin-3-yl)methanone]
2 | ≤ 500 nM | COc1ccc2c(C(=O)N3CCc4[nH]cnc4[C@H]3c3nc4cccc(F)c4o3)cnn2c1 [Example 325, (S)-(4-(7-fluorobenzo[d]oxazol-2-yl)-6,7-dihydro-1H-imidazo[4,5-c]pyridin-5(4H)-yl)(6-methoxypyrazolo[1,5-a]pyridin-3-yl)methanone]
3 | 1000 to 5000 nM | COc1ccc2c(C(=O)N3CCc4[nH]cnc4[C@@H]3c3nc4cccc(F)c4o3)cnn2c1 [Example 326, (R)-(4-(7-fluorobenzo[d]oxazol-2-yl)-6,7-dihydro-1H-imidazo[4,5-c]pyridin-5(4H)-yl)(6-methoxypyrazolo[1,5-a]pyridin-3-yl)methanone]
4 | ≤ 500 nM | CC(C)(O)c1nc(C(F)F)c(C(=O)N2CCc3[nH]cnc3[C@H]2c2nc3cc(C(F)(F)F)ccc3o2)o1 [Example 327, (S)-(4-(difluoromethyl)-2-(2-hydroxypropan-2-yl)oxazol-5-yl)(4-(5-(trifluoromethyl)benzo[d]oxazol-2-yl)-6,7-dihydro-1H-imidazo[4,5-c]pyridin-5(4H)-yl)methanone]
5 | ≤ 500 nM | CC(C)(O)c1nc(C(F)F)c(C(=O)N2CCc3[nH]cnc3[C@@H]2c2nc3cc(C(F)(F)F)ccc3o2)o1 [Example 328, (R)-(4-(difluoromethyl)-2-(2-hydroxypropan-2-yl)oxazol-5-yl)(4-(5-(trifluoromethyl)benzo[d]oxazol-2-yl)-6,7-dihydro-1H-imidazo[4,5-c]pyridin-5(4H)-yl)methanone]
6 | ≤ 500 nM | O=C(c1ocnc1C(F)F)N1CCc2[nH]cnc2[C@H]1c1nc2cc(C(F)(F)F)ccc2o1 [Example 329, (S)-(4-(difluoromethyl)oxazol-5-yl)(4-(5-(trifluoromethyl)benzo[d]oxazol-2-yl)-6,7-dihydro-1H-imidazo[4,5-c]pyridin-5(4H)-yl)methanone]
7 | ≤ 500 nM | O=C(c1ocnc1C(F)F)N1CCc2[nH]cnc2[C@@H]1c1nc2cc(C(F)(F)F)ccc2o1 [Example 330, (R)-(4-(difluoromethyl)oxazol-5-yl)(4-(5-(trifluoromethyl)benzo[d]oxazol-2-yl)-6,7-dihydro-1H-imidazo[4,5-c]pyridin-5(4H)-yl)methanone]
8 | 500 to 1000 nM | Cc1ccc2oc([C@@H]3c4nc[nH]c4CCN3C(=O)c3oc(C(C)(C)O)nc3C)nc2c1 [Example 331, (S)-(2-(2-hydroxypropan-2-yl)-4-methyloxazol-5-yl)(4-(5-methylbenzo[d]oxazol-2-yl)-6,7-dihydro-1H-imidazo[4,5-c]pyridin-5(4H)-yl)methanone]
9 | 1000 to 5000 nM | Cc1ccc2oc([C@H]3c4nc[nH]c4CCN3C(=O)c3oc(C(C)(C)O)nc3C)nc2c1 [Example 332, (R)-(2-(2-hydroxypropan-2-yl)-4-methyloxazol-5-yl)(4-(5-methylbenzo[d]oxazol-2-yl)-6,7-dihydro-1H-imidazo[4,5-c]pyridin-5(4H)-yl)methanone]
10 | ≤ 500 nM | O=C(c1nnc(-c2ccccn2)o1)N1CCc2[nH]cnc2[C@H]1c1nc2c(F)cccc2o1 [Example 333, (S)-(4-(4-fluorobenzo[d]oxazol-2-yl)-6,7-dihydro-1H-imidazo[4,5-c]pyridin-5(4H)-yl)(5-(pyridin-2-yl)-1,3,4-oxadiazol-2-yl)methanone]
11 | 1000 to 5000 nM | O=C(c1nnc(-c2ccccn2)o1)N1CCc2[nH]cnc2[C@@H]1c1nc2c(F)cccc2o1 [Example 334, (R)-(4-(4-fluorobenzo[d]oxazol-2-yl)-6,7-dihydro-1H-imidazo[4,5-c]pyridin-5(4H)-yl)(5-(pyridin-2-yl)-1,3,4-oxadiazol-2-yl)methanone]
12 | ≤ 500 nM | O=C(c1nnc(-c2ccccn2)o1)N1CCc2[nH]cnc2[C@H]1c1nc2cccc(F)c2o1 [Example 335, (S)-(4-(7-fluorobenzo[d]oxazol-2-yl)-6,7-dihydro-1H-imidazo[4,5-c]pyridin-5(4H)-yl)(5-(pyridin-2-yl)-1,3,4-oxadiazol-2-yl)methanone]
13 | 500 to 1000 nM | O=C(c1nnc(-c2ccccn2)o1)N1CCc2[nH]cnc2[C@@H]1c1nc2cccc(F)c2o1 [Example 336, (R)-(4-(7-fluorobenzo[d]oxazol-2-yl)-6,7-dihydro-1H-imidazo[4,5-c]pyridin-5(4H)-yl)(5-(pyridin-2-yl)-1,3,4-oxadiazol-2-yl)methanone]
14 | ≤ 500 nM | Cn1ccc(-c2nnc(C(=O)N3CCc4[nH]cnc4[C@H]3c3nc4cccc(F)c4o3)o2)n1 [Example 337, (S)-(4-(7-fluorobenzo[d]oxazol-2-yl)-6,7-dihydro-1H-imidazo[4,5-c]pyridin-5(4H)-yl)(5-(1-methyl-1H-pyrazol-3-yl)-1,3,4-oxadiazol-2-yl)methanone]
15 | 500 to 1000 nM | Cn1ccc(-c2nnc(C(=O)N3CCc4[nH]cnc4[C@@H]3c3nc4cccc(F)c4o3)o2)n1 [Example 338, (R)-(4-(7-fluorobenzo[d]oxazol-2-yl)-6,7-dihydro-1H-imidazo[4,5-c]pyridin-5(4H)-yl)(5-(1-methyl-1H-pyrazol-3-yl)-1,3,4-oxadiazol-2-yl)methanone]
16 | 500 to 1000 nM | COc1ccc2oc([C@@H]3c4nc[nH]c4CCN3C(=O)c3oc(C(C)(C)O)nc3C(F)F)nc2c1 [Example 339, (S)-(4-(difluoromethyl)-2-(2-hydroxypropan-2-yl)oxazol-5-yl)(4-(5-methoxybenzo[d]oxazol-2-yl)-6,7-dihydro-1H-imidazo[4,5-c]pyridin-5(4H)-yl)methanone]
17 | 1000 to 5000 nM | COc1ccc2oc([C@H]3c4nc[nH]c4CCN3C(=O)c3oc(C(C)(C)O)nc3C(F)F)nc2c1 [Example 340, (R)-(4-(difluoromethyl)-2-(2-hydroxypropan-2-yl)oxazol-5-yl)(4-(5-methoxybenzo[d]oxazol-2-yl)-6,7-dihydro-1H-imidazo[4,5-c]pyridin-5(4H)-yl)methanone]
18 | ≤ 500 nM | COc1ccc2oc([C@@H]3c4nc[nH]c4CCN3C(=O)c3ocnc3C(F)F)nc2c1 [Example 341, (S)-(4-(difluoromethyl)oxazol-5-yl)(4-(5-methoxybenzo[d]oxazol-2-yl)-6,7-dihydro-1H-imidazo[4,5-c]pyridin-5(4H)-yl)methanone]
19 | 500 to 1000 nM | COc1ccc2oc([C@H]3c4nc[nH]c4CCN3C(=O)c3ocnc3C(F)F)nc2c1 [Example 342, (R)-(4-(difluoromethyl)oxazol-5-yl)(4-(5-methoxybenzo[d]oxazol-2-yl)-6,7-dihydro-1H-imidazo[4,5-c]pyridin-5(4H)-yl)methanone]
20 | 1000 to 5000 nM | Cn1nc(Cl)nc1C(=O)N1CCc2[nH]cnc2[C@H]1c1nc2ccc(F)cc2o1 [Example 343, (S)-(3-chloro-1-methyl-1H-1,2,4-triazol-5-yl)(4-(6-fluorobenzo[d]oxazol-2-yl)-6,7-dihydro-1H-imidazo[4,5-c]pyridin-5(4H)-yl)methanone]
21 | ≤ 500 nM | CC(C)(O)c1nc(C(F)F)c(C(=O)N2CCc3[nH]cnc3[C@H]2c2nc3c(F)ccc(F)c3o2)o1 [Example 345, (S)-(4-(4,7-difluorobenzo[d]oxazol-2-yl)-6,7-dihydro-1H-imidazo[4,5-c]pyridin-5(4H)-yl)(4-(difluoromethyl)-2-(2-hydroxypropan-2-yl)oxazol-5-yl)methanone]
22 | 1000 to 5000 nM | CC(C)(O)c1nc(C(F)F)c(C(=O)N2CCc3[nH]cnc3[C@@H]2c2nc3c(F)ccc(F)c3o2)o1 [Example 346, (R)-(4-(4,7-difluorobenzo[d]oxazol-2-yl)-6,7-dihydro-1H-imidazo[4,5-c]pyridin-5(4H)-yl)(4-(difluoromethyl)-2-(2-hydroxypropan-2-yl)oxazol-5-yl)methanone]
23 | 500 to 1000 nM | CC(C)(O)c1nc(C(F)F)c(C(=O)N2CCc3[nH]cnc3[C@H]2c2nc3c(F)c(F)ccc3o2)o1 [Example 347, (S)-(4-(4,5-difluorobenzo[d]oxazol-2-yl)-6,7-dihydro-1H-imidazo[4,5-c]pyridin-5(4H)-yl)(4-(difluoromethyl)-2-(2-hydroxypropan-2-yl)oxazol-5-yl)methanone]
24 | 1000 to 5000 nM | CC(C)(O)c1nc(C(F)F)c(C(=O)N2CCc3[nH]cnc3[C@@H]2c2nc3c(F)c(F)ccc3o2)o1 [Example 348, (R)-(4-(4,5-difluorobenzo[d]oxazol-2-yl)-6,7-dihydro-1H-imidazo[4,5-c]pyridin-5(4H)-yl)(4-(difluoromethyl)-2-(2-hydroxypropan-2-yl)oxazol-5-yl)methanone]
25 | 500 to 1000 nM | O=C(c1ocnc1C(F)F)N1CCc2[nH]cnc2[C@@H]1c1nc2c(F)c(F)ccc2o1 [Example 349, (R)-(4-(4,5-difluorobenzo[d]oxazol-2-yl)-6,7-dihydro-1H-imidazo[4,5-c]pyridin-5(4H)-yl)(4-(difluoromethyl)oxazol-5-yl)methanone]
26 | ≤ 500 nM | O=C(c1ocnc1C(F)F)N1CCc2[nH]cnc2[C@H]1c1nc2c(F)c(F)ccc2o1 [Example 350, (S)-(4-(4,5-difluorobenzo[d]oxazol-2-yl)-6,7-dihydro-1H-imidazo[4,5-c]pyridin-5(4H)-yl)(4-(difluoromethyl)oxazol-5-yl)methanone]
